Laboratory results as given in US8771716B2, “Modified release analgesic suspensions” (McNeil-PPC, Inc., priority 2006, dated 2014).

Key:
[1] = Typical duration of action (period of therapeutic effect) of an immediate release dose, from labeling; format: in vivo
Description: As used herein, “ATDAIRD” shall mean the average therapeutic duration of action of an effective immediate release dose” of a particular active ingredient. […] The therapeutic duration of action of a particular active ingredient can readily be determined from the dosing instructions in the labeling for immediate release products containing that particular active ingredient.

[2] = decongestant; typically administered every 2 to 4 hours; cited from earlier work

SMILES | ATDAIRD (average therapeutic duration of action of an effective immediate release dose) [1] | duration of therapeutic effect [2]
CC(C)Cc1ccc(C(C)C(=O)O)cc1 (centres unmarked) [ibuprofen, 2-(4-isobutylphenyl)-propionic acid] | 5 h | –
CC(C(=O)O)c1cccc(C(=O)c2ccccc2)c1 (centres unmarked) [ketoprofen] | 5 h | –
COc1ccc2cc([C@H](C)C(=O)O)ccc2c1 [naproxen] | 10 h | –
CNC[C@H](O)c1cccc(O)c1 [phenylephrine, benzynemethanol, 3-hydroxy-α-[(methylamino)methyl]] | – | about 2.5 hours
CN[C@@H](C)[C@@H](O)c1ccccc1 [psuedoephedrine] | about 3 hours | –
